Data taken from publication PMC7375240, “Covalent Inhibitors Allosterically Block the Activation of Rho Family Proteins and Suppress Cancer Cell Invasion” (Advanced Science, 2020).

Tests used:
Cdc42 = target: T1, Cdc42 (Homo sapiens, UniProt P60953); experiment: pull-down of Cdc42 with its GEF; assay type: binding; details: Cdc42-GEF interaction (GEF probably human intersectin1 […]-1571), pH […]
T1 construct: full length, His6-tagged (pET28a), E. coli BL21(DE3)

Rac1 = target: T2, Rac1 (Homo sapiens, UniProt P63000); experiment: pull-down of Rac1 with its GEF; assay type: binding; details: Rac1-GEF interaction (GEF probably murine Tiam1 […]-1406), pH […]
T2 construct: full length, His6-tagged (pET28a), E. coli BL21(DE3)

T1 sequence (P60953 whole entry): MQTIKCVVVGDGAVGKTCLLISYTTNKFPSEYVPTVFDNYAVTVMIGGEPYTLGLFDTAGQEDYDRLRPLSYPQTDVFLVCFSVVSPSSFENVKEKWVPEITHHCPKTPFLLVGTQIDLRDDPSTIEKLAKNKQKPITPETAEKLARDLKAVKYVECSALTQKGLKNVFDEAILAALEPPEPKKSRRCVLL

C=CCOC(=O)C1=CS(=O)(=O)c2ccccc21 [DC-RC-063, DC-Rhoin]
pull-down of Cdc42 with its GEF (Cdc42): selectively inhibited the interactions between Rho family proteins (RhoA, Cdc42, and Rac1) | pull-down of Rac1 with its GEF (Rac1): selectively inhibited the interactions between Rho family proteins (RhoA, Cdc42, and Rac1)
